Reference: ChEMBL document CHEMBL5726429, “Inhibitors of lysine specific demethylase-1” (2017)

Target: Lysine-specific histone demethylase 1A (Homo sapiens, UniProt O60341)
Assay: In Vitro Enzyme Inhibition Assay: The enzymatic assay of LSD1 activity is based on Time Resolved-Fluorescence Resonance Energy Transfer (TR-FRET) detection. The inhibitory properties of compounds to LSD1 were determined in 384-well plate format under the following reaction conditions: 0.1-0.5 nM LSD1, 50 nM H3K4mel-biotin labeled peptide (Anaspec cat # 64355), 2 μM FAD in assay buffer of 50 mM …

IC50: < 100 nM
SMILES: Cn1c(N2CCC(N)CC2)nc(-c2ccc(C#N)c(F)c2)c(Cl)c1=O
